Measurements published in US20080175794A1, “Substituted Pyridazinyl- and Pyrimidinyl-Quinolin-4-Ylamine Analogues” (NEUROGEN CORPORATION, priority 2005, published 2008).

Biological target: T1, human capsaicin receptor (Homo sapiens, UniProt Q8NER1)
T1 construct: expressed in transfected cells
Assay: Calcium mobilization assay, determination of antagonist activity (Example 6)
Type: cell-based
Conditions: assay provided in Example 6, cells expressing human capsaicin receptor, capsaicin at EC50
Summary of the method: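 Stable HEK293 clones expressing full-length human capsaicin receptor, loaded with Fluo-3 AM in KRH buffer pH 7.4 (1–2 h, 37 °C). Test compound (1–5 μM final) preincubated 0.5–6 h at room temperature in the dark, then capsaicin added at its EC50. FLIPR/Fluoroskan calcium signal; IC50 as concentration halving the capsaicin response.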

T1 sequence (Q8NER1 whole entry): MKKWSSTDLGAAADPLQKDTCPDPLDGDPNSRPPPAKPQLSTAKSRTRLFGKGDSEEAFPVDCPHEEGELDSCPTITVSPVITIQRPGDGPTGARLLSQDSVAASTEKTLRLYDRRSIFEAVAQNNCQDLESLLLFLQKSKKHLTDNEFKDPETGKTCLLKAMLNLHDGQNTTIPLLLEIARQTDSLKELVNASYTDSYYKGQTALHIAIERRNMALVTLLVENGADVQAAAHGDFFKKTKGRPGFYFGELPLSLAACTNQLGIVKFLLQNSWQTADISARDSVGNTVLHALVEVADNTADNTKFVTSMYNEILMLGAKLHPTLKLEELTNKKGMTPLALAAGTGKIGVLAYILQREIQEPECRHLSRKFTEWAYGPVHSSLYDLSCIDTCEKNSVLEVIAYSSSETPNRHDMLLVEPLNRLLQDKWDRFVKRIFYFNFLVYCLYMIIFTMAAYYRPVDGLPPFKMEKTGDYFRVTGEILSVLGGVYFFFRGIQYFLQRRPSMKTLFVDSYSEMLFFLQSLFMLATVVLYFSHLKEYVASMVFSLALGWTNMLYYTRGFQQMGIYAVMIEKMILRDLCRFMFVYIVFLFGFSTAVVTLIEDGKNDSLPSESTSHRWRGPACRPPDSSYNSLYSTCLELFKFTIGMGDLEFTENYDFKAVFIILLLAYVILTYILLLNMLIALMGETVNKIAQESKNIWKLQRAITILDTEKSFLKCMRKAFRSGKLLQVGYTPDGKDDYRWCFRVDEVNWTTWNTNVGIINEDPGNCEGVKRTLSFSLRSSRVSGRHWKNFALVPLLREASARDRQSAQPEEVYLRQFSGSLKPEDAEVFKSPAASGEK

SMILES	IC50 (Table III)	IC50
CN1CCCC1CCOc1cc(C(F)(F)F)c(-c2cnc3c(Nc4ccc(C(F)(F)F)cn4)ccnc3n2)nn1 (centres unmarked) [Compound 65, 3-{6-[2-(1-methylpyrrolidin-2-yl)ethoxy]-4-(trifluoromethyl)pyridazin-3-yl}-N-[5-(trifluoromethyl)pyridin-2-yl]pyrido[2,3-b]pyrazin-8-amine]	< 1 µM	–
CCN1CCN(c2cc(C(F)(F)F)c(-c3cnc4c(Nc5ccc(C(F)(F)F)cn5)ccnc4n3)nn2)CC1 [Compound 88, 3-[6-(4-ethylpiperazin-1-yl)-4-(trifluoromethyl)pyridazin-3-yl]-N-[5-(trifluoromethyl)pyridin-2-yl]pyrido[2,3-b]pyrazin-8-amine]	< 1 µM	–
FC(F)(F)c1ccc(Nc2ccnc3nc(-c4nnccc4C(F)(F)F)ccc23)nc1 [Compound 1, N-[5-(Trifluoromethyl)pyridin-2-yl]-7-[4-(trifluoromethyl)pyridazin-3-yl]-1,8-naphthyridin-4-amine]	–	< 1 µM
CCC(C)Nc1cc(C(F)(F)F)c(-c2cnc3c(Nc4ccc(C(F)(F)F)cn4)ccnc3n2)nn1 (centres unmarked) [Compound 108, 3-[6-(sec-butylamino)-4-(trifluoromethyl)pyridazin-3-yl]-N-[5-(trifluoromethyl)pyridin-2-yl]pyrido[2,3-b]pyrazin-8-amine]	< 1 µM	–
CCN(C)c1cc(C(F)(F)F)c(-c2cnc3c(Nc4ccc(C(F)(F)F)cn4)ccnc3n2)nn1 [Compound 180, 3-{6-[ethyl(methyl)amino]-4-(trifluoromethyl)pyridazin-3-yl}-N-[5-(trifluoromethyl)pyridin-2-yl]pyrido[2,3-b]pyrazin-8-amine]	< 1 µM	–
FC(F)(F)c1ccc(Nc2ccnc3nc(-c4nnc(NCC5CC5)cc4C(F)(F)F)cnc23)nc1 [Compound 103, 3-{6-[(cyclopropylmethyl)amino]-4-(trifluoromethyl)pyridazin-3-yl}-N-[5-(trifluoromethyl)pyridin-2-yl]pyrido[2,3-b]pyrazin-8-amine]	< 1 µM	–
CC(C)N(C)c1cc(C(F)(F)F)c(-c2cnc3c(Nc4ccc(C(F)(F)F)cn4)ccnc3n2)nn1 [Compound 185, 3-{6-[isopropyl(methyl)amino]-4-(trifluoromethyl)pyridazin-3-yl}-N-[5-(trifluoromethyl)pyridin-2-yl]pyrido[2,3-b]pyrazin-8-amine]	< 1 µM	–
COCCN(C)c1cc(C(F)(F)F)c(-c2cnc3c(Nc4ccc(C(F)(F)F)cn4)ccnc3n2)nn1 [Compound 181, 3-{6-[(2-methoxyethyl)(methyl)amino]-4-(trifluoromethyl)pyridazin-3-yl}-N-[5-(trifluoromethyl)pyridin-2-yl]pyrido[2,3-b]pyrazin-8-amine]	< 1 µM	–
CCCC(C)Nc1cc(C(F)(F)F)c(-c2cnc3c(Nc4ccc(C(F)(F)F)cn4)ccnc3n2)nn1 (centres unmarked) [Compound 158, 3-{6-[(1-methylbutyl)amino]-4-(trifluoromethyl)pyridazin-3-yl}-N-[5-(trifluoromethyl)pyridin-2-yl]pyrido[2,3-b]pyrazin-8-amine]	< 1 µM	–
FC(F)(F)c1ccc(Nc2ccnc3nc(-c4nnc(NCCCN5CCCC5)cc4C(F)(F)F)cnc23)nc1 [Compound 77, 3-{6-[(3-pyrrolidin-1-ylpropyl)amino]-4-(trifluoromethyl)pyridazin-3-yl}-N-[5-(trifluoromethyl)pyridin-2-yl]pyrido[2,3-b]pyrazin-8-amine]	< 1 µM	–
CN(CC(N)=O)c1cc(C(F)(F)F)c(-c2cnc3c(Nc4ccc(C(F)(F)F)cn4)ccnc3n2)nn1 [Compound 57, N2-methyl-N2-[5-(trifluoromethyl)-6-(8-{[5-(trifluoromethyl)pyridin-2-yl]amino}pyrido[2,3-b]pyrazin-3-yl)pyridazin-3-yl]glycinamide]	< 1 µM	–
COCCNc1cc(C(F)(F)F)c(-c2cnc3c(Nc4ccc(C(F)(F)F)cn4)ccnc3n2)nn1 [Compound 163, 3-{6-[(2-methoxyethyl)amino]-4-(trifluoromethyl)pyridazin-3-yl}-N-[5-(trifluoromethyl)pyridin-2-yl]pyrido[2,3-b]pyrazin-8-amine]	< 1 µM	–
FC(F)(F)c1ccc(Nc2ccnc3nc(-c4nnc(NCc5ccccn5)cc4C(F)(F)F)cnc23)nc1 [Compound 80, 3-{6-[(pyridin-2-ylmethyl)amino]-4-(trifluoromethyl)pyridazin-3-yl}-N-[5-(trifluoromethyl)pyridin-2-yl]pyrido[2,3-b]pyrazin-8-amine]	< 1 µM	–
CC(C)N(CCO)c1cc(C(F)(F)F)c(-c2cnc3c(Nc4ccc(C(F)(F)F)cn4)ccnc3n2)nn1 [Compound 197, 2-{isopropyl[5-(trifluoromethyl)-6-(8-{[5-(trifluoromethyl)pyridin-2-yl]amino}pyrido[2,3-b]pyrazin-3-yl)pyridazin-3-yl]amino}ethanol]	< 1 µM	–
CC(O)CNc1cc(C(F)(F)F)c(-c2cnc3c(Nc4ccc(C(F)(F)F)cn4)ccnc3n2)nn1 (centres unmarked) [Compound 116, 1-{[5-(trifluoromethyl)-6-(8-{[5-(trifluoromethyl)pyridin-2-yl]amino}pyrido[2,3-b]pyrazin-3-yl)pyridazin-3-yl]amino}propan-2-ol]	< 1 µM	–
CN1CCC(N(C)c2cc(C(F)(F)F)c(-c3cnc4c(Nc5ccc(C(F)(F)F)cn5)ccnc4n3)nn2)C1 (centres unmarked) [Compound 97, 3-{6-[methyl(1-methylpyrrolidin-3-yl)amino]-4-(trifluoromethyl)pyridazin-3-yl}-N-[5-(trifluoromethyl)pyridin-2-yl]pyrido[2,3-b]pyrazin-8-amine]	< 1 µM	–
CN(CC(=O)O)c1cc(C(F)(F)F)c(-c2cnc3c(Nc4ccc(C(F)(F)F)cn4)ccnc3n2)nn1 [Compound 56, N-methyl-N-[5-(trifluoromethyl)-6-(8-{[5-(trifluoromethyl)pyridin-2-yl]amino}pyrido[2,3-b]pyrazin-3-yl)pyridazin-3-yl]glycine]	< 1 µM	–
FC(F)(F)CNc1cc(C(F)(F)F)c(-c2cnc3c(Nc4ccc(C(F)(F)F)cn4)ccnc3n2)nn1 [Compound 155, 3-{6-[(2,2,2-trifluoroethyl)amino]-4-(trifluoromethyl)pyridazin-3-yl}-N-[5-(trifluoromethyl)pyridin-2-yl]pyrido[2,3-b]pyrazin-8-amine]	< 1 µM	–
FC(F)(F)c1ccc(Nc2ccnc3nc(-c4nnc(NC5CCCCC5)cc4C(F)(F)F)cnc23)nc1 [Compound 110, 3-[6-(cyclohexylamino)-4-(trifluoromethyl)pyridazin-3-yl]-N-[5-(trifluoromethyl)pyridin-2-yl]pyrido[2,3-b]pyrazin-8-amine]	< 1 µM	–
CN(C)C1CCN(c2cc(C(F)(F)F)c(-c3cnc4c(Nc5ccc(C(F)(F)F)cn5)ccnc4n3)nn2)CC1 [Compound 96, 3-{6-[4-(dimethylamino)piperidin-1-yl]-4-(trifluoromethyl)pyridazin-3-yl}-N-[5-(trifluoromethyl)pyridin-2-yl]pyrido[2,3-b]pyrazin-8-amine]	< 1 µM	–
CNc1cc(C(F)(F)F)c(-c2cnc3c(Nc4ccc(C(F)(F)F)cn4)ccnc3n2)nn1 [Compound 100, 3-[6-(methylamino)-4-(trifluoromethyl)pyridazin-3-yl]-N-[5-(trifluoromethyl)pyridin-2-yl]pyrido[2,3-b]pyrazin-8-amine]	< 1 µM	–
CC(C)Nc1nc(Nc2ccnc3nc(-c4nnccc4C(F)(F)F)cnc23)ccc1C(F)(F)F [Compound 48, N2-isopropyl-3-(trifluoromethyl)-N-~6~-{3-[4-(trifluoromethyl)pyridazin-3-yl]pyrido[2,3-b]pyrazin-8-yl}pyridine-2,6-diamine]	< 1 µM	–
CCOc1cc(C(F)(F)F)c(-c2cnc3c(Nc4ccc(C(F)(F)F)cn4)ccnc3n2)nn1 [Compound 50, 3-[6-ethoxy-4-(trifluoromethyl)pyridazin-3-yl]-N-[5-(trifluoromethyl)pyridin-2-yl]pyrido[2,3-b]pyrazin-8-amine]	< 1 µM	–
FC(F)(F)c1ccc(Nc2ccnc3nc(-c4nnc(N5CCCCCC5)cc4C(F)(F)F)cnc23)nc1 [Compound 178, 3-[6-azepan-1-yl-4-(trifluoromethyl)pyridazin-3-yl]-N-[5-(trifluoromethyl)pyridin-2-yl]pyrido[2,3-b]pyrazin-8-amine]	< 1 µM	–
CCN(CC)CCCNc1cc(C(F)(F)F)c(-c2cnc3c(Nc4ccc(C(F)(F)F)cn4)ccnc3n2)nn1 [Compound 73, N,N-diethyl-N′-[5-(trifluoromethyl)-6-(8-{[5-(trifluoromethyl)pyridin-2-yl]amino}pyrido[2,3-b]pyrazin-3-yl)pyridazin-3-yl]propane-1,3-diamine]	< 1 µM	–
CC1(C)CCN1c1cc(C(F)(F)F)c(-c2cnc3c(Nc4ccc(C(F)(F)F)cn4)ccnc3n2)nn1 [Compound 131, 3-[6-(2,2-dimethylazetidin-1-yl)-4-(trifluoromethyl)pyridazin-3-yl]-N-[5-(trifluoromethyl)pyridin-2-yl]pyrido[2,3-b]pyrazin-8-amine]	< 1 µM	–
CC1CCN(c2cc(C(F)(F)F)c(-c3cnc4c(Nc5ccc(C(F)(F)F)cn5)ccnc4n3)nn2)CC1 [Compound 177, 3-[6-(4-methylpiperidin-1-yl)-4-(trifluoromethyl)pyridazin-3-yl]-N-[5-(trifluoromethyl)pyridin-2-yl]pyrido[2,3-b]pyrazin-8-amine]	< 1 µM	–
CCOc1nc(Nc2ccnc3nc(-c4nnccc4C(F)(F)F)cnc23)ccc1C(F)(F)F [Compound 44, N-[6-ethoxy-5-(trifluoromethyl)-2-pyridinyl]-3-[4-(trifluoromethyl)-3-pyridazinyl]pyrido[2,3-b]pyrazin-8-amine]	< 1 µM	–
CC(O)CCNc1cc(C(F)(F)F)c(-c2cnc3c(Nc4ccc(C(F)(F)F)cn4)ccnc3n2)nn1 (centres unmarked) [Compound 174, 4-{[5-(trifluoromethyl)-6-(8-{[5-(trifluoromethyl)pyridin-2-yl]amino}pyrido[2,3-b]pyrazin-3-yl)pyridazin-3-yl]amino}butan-2-ol]	< 1 µM	–
